Test system: REV1 CTD-REV7 interaction
Assay: ELISA assay probing the REV1 CTD-REV7 interaction
Format: binding, mouse
Settings: ratio of test compound IC50 to RE01 IC50
Method: The ELISA assay for probing the REV1 CTD-REV7 interaction was carried out by immobilizing 50 nM His8-tagged REV7/3 in 200 μL phosphate-buffered saline (PBS, Gibco) containing 0.2% BSA in a Ni-NTA coated 96-well plate (HisSorb, Qiagen) for 30 minutes. Unbound His8-tagged REV7/3 was removed by washing the wells four times with PBS containing 0.05% Tween-20. […] After incubation for 30 minutes, the wells were washed four times with PBS containing 0.05% Tween-20 to remove the unbound FLAG-tagged POL κ RIR-REV1 CTD. A solution of the anti-FLAG horseradish peroxidase (HRP)-conjugated antibody (Sigma-Aldrich) in PBS containing 0.2% BSA was then added to the wells. After incubating for 1 hour, the antibody was washed off four times with PBS containing 0.05% Tween-20. The 3,3′,5,5′-tetramethylbenzedine (TMB) substrate (SureBlue TMB, Seracare) was added to the wells. After incubation of 20-30 minutes, the reaction was quenched with 1 M HCl. A SpectraMax plate reader (Molecular Devices) was used to measure absorbance at 450 nm.

SMILES | Relative IC50 Ratio
CC(C)CC(=O)c1c(Nc2ccc(Br)cc2Br)[nH]c2c(Cl)ccc([N+](=O)[O-])c2c1=O [RE04, 8-chloro-2-((2,4-dibromophenyl)amino)-3-(3-methylbutanoyl)-5-nitroquinolin-4(1H)-one] | B (B represents a ratio of test compound IC50 so to RE1 IC50 between 0.8 and 1.5)
CC(C)CC(=O)c1c(Nc2ccc(C(=O)O)cc2Cl)[nH]c2c(Cl)ccc([N+](=O)[O-])c2c1=O [RE06, 3-chloro-4-((8-chloro-3-(3-methylbutanoyl)-5-nitro-4-oxo-1,4-dihydroquinolin-2-yl)amino)benzoic acid] | C (C represents a ratio of test compound IC50 to RE01 IC50 between 1.5-10)
CC(C)CC(=O)c1c(Nc2ccc(Cl)cc2Cl)[nH]c2c(C(=O)O)ccc(Cl)c2c1=O [RE08, 5-chloro-2-((2,4-dichlorophenyl)amino)-3-(3-methylbutanoyl)-4-oxo-1,4-dihydroquinoline-8-carboxylic acid] | B (B represents a ratio of test compound IC50 so to RE1 IC50 between 0.8 and 1.5)
CC(C)CC(=O)c1c(Nc2ccc(Cl)cc2Cl)[nH]c2c(Cl)ccc(C(=O)O)c2c1=O [RE09, 8-chloro-2-((2,4-dichlorophenyl)amino)-3-(3-methylbutanoyl)-4-oxo-1,4-dihydroquinoline-5-carboxylic acid] | B (B represents a ratio of test compound IC50 so to RE1 IC50 between 0.8 and 1.5)
CC(C)CC(=O)c1c(Nc2ccc(Cl)cc2Cl)[nH]c2c(C(=O)O)ccc([N+](=O)[O-])c2c1=O [RE10, 2-((2,4-dichlorophenyl)amino)-3-(3-methylbutanoyl)-5-nitro-4-oxo-1,4-dihydroquinoline-8-carboxylic acid] | B (B represents a ratio of test compound IC50 so to RE1 IC50 between 0.8 and 1.5)
CC(C)CC(=O)c1c(Nc2ccc(Cl)cc2Cl)[nH]c2c(Cl)ccc(N)c2c1=O [RE11, 5-amino-8-chloro-2-((2,4-dichlorophenyl)amino)-3-(3-methylbutanoyl)quinolin-4(1H)-one] | C (C represents a ratio of test compound IC50 to RE01 IC50 between 1.5-10)
CC(=O)c1c(Nc2ccc(Cl)cc2Cl)[nH]c2c(Cl)ccc([N+](=O)[O-])c2c1=O [RE12, 3-acetyl-8-chloro-2-((2,4-dichlorophenyl)amino)-5-nitroquinolin-4(1H)-one] | B (B represents a ratio of test compound IC50 so to RE1 IC50 between 0.8 and 1.5)
O=C(O)/C(O)=C/C(=O)c1c(Nc2ccc(Cl)cc2Cl)[nH]c2c(Cl)ccc([N+](=O)[O-])c2c1=O [RE13, (Z)-4-(8-chloro-2-((2,4-dichlorophenyl)amino)-5-nitro-4-oxo-1,4-dihydroquinolin-3-yl)-2-hydroxy-4-oxobut-2-enoic acid] | A (A represents a ratio of test compound IC50 to RE01 IC50 of less than 0.8)
CC(=NO)c1c(Nc2ccc(Cl)cc2Cl)[nH]c2c(Cl)ccc([N+](=O)[O-])c2c1=O [RE14, 8-chloro-2-((2,4-dichlorophenyl)amino)-3-(1-(hydroxyimino)ethyl)-5-nitroquinolin-4(1H)-one] | B (B represents a ratio of test compound IC50 so to RE1 IC50 between 0.8 and 1.5)
CC(O)c1c(Nc2ccc(Cl)cc2Cl)[nH]c2c(Cl)ccc([N+](=O)[O-])c2c1=O (stereo not shown) [RE15, 8-chloro-2-((2,4-dichlorophenyl)amino)-3-(1-hydroxyethyl)-5-nitroquinolin-4(1H)-one] | B (B represents a ratio of test compound IC50 so to RE1 IC50 between 0.8 and 1.5)
CC(C)CC(=O)c1c(Nc2ccccc2)[nH]c2c(Cl)ccc([N+](=O)[O-])c2c1=O [RE16, 8-chloro-3-(3-methylbutanoyl)-5-nitro-2-(phenylamino)quinolin-4(1H)-one] | C (C represents a ratio of test compound IC50 to RE01 IC50 between 1.5-10)
CC(C)CC(=O)c1c(Nc2ccc(I)cc2I)[nH]c2c(Cl)ccc([N+](=O)[O-])c2c1=O [RE17, 8-chloro-2-((2,4-diiodophenyl)amino)-3-(3-methylbutanoyl)-5-nitroquinolin-4(1H)-one] | B (B represents a ratio of test compound IC50 so to RE1 IC50 between 0.8 and 1.5)
CC(C)CC(=O)c1c(Nc2ccc(Cl)cc2C(F)(F)F)[nH]c2c(Cl)ccc([N+](=O)[O-])c2c1=O [RE18, 8-chloro-2-((4-chloro-2-(trifluoromethyl)phenyl)amino)-3-(3-methylbutanoyl)-5-nitroquinolin-4(1H)-one] | A (A represents a ratio of test compound IC50 to RE01 IC50 of less than 0.8)
CC(C)CC(=O)c1c(Nc2ccc3ccccc3c2)[nH]c2c(Cl)ccc([N+](=O)[O-])c2c1=O [RE19, 8-chloro-3-(3-methylbutanoyl)-2-(naphthalen-2-ylamino)-5-nitroquinolin-4(1H)-one] | B (B represents a ratio of test compound IC50 so to RE1 IC50 between 0.8 and 1.5)
CC(C)CC(=O)c1c(Nc2ccc(Cl)cc2)[nH]c2c(Cl)ccc([N+](=O)[O-])c2c1=O [RE20, 8-chloro-2-((4-chlorophenyl)amino)-3-(3-methylbutanoyl)-5-nitroquinolin-4(1H)-one] | C (C represents a ratio of test compound IC50 to RE01 IC50 between 1.5-10)
CC(C)CC(=O)c1c(Nc2ccc(C(C)C)cc2)[nH]c2c(Cl)ccc([N+](=O)[O-])c2c1=O [RE21, 8-chloro-2-((4-isopropylphenyl)amino)-3-(3-methylbutanoyl)-5-nitroquinolin-4(1H)-one] | C (C represents a ratio of test compound IC50 to RE01 IC50 between 1.5-10)
Cc1ccc(Nc2[nH]c3c(Cl)ccc([N+](=O)[O-])c3c(=O)c2C(=O)CC(C)C)c(C)c1 [RE22, 8-chloro-2-((2,4-dimethylphenyl)amino)-3-(3-methylbutanoyl)-5-nitroquinolin-4(1H)-one] | C (C represents a ratio of test compound IC50 to RE01 IC50 between 1.5-10)
CC(C)CC(=O)c1c(Nc2ccccc2Cl)[nH]c2c(Cl)ccc([N+](=O)[O-])c2c1=O [RE23, 8-chloro-2-((2-chlorophenyl)amino)-3-(3-methylbutanoyl)-5-nitroquinolin-4(1H)-one] | B (B represents a ratio of test compound IC50 so to RE1 IC50 between 0.8 and 1.5)
CC(C)CC(=O)c1c(Nc2ccc(F)cc2F)[nH]c2c(Cl)ccc([N+](=O)[O-])c2c1=O [RE24, 8-chloro-2-((2,4-difluorophenyl)amino)-3-(3-methylbutanoyl)-5-nitroquinolin-4(1H)-one] | C (C represents a ratio of test compound IC50 to RE01 IC50 between 1.5-10)
CC(C)CC(=O)c1c(Nc2ccc(Cl)cc2Cl)[nH]c2c(Cl)cccc2c1=O [RE25, 8-chloro-2-((2,4-dichlorophenyl)amino)-3-(3-methylbutanoyl)quinolin-4(1H)-one] | C (C represents a ratio of test compound IC50 to RE01 IC50 between 1.5-10)
CC(C)CC(=O)c1c(Nc2ccc(Cl)cc2Cl)[nH]c2c(Cl)ccc(C(F)(F)F)c2c1=O [RE26, 8-chloro-2-((2,4-dichlorophenyl)amino)-3-(3-methylbutanoyl)-5-(trifluoromethyl)quinolin-4(1H)-one] | C (C represents a ratio of test compound IC50 to RE01 IC50 between 1.5-10)
Cc1ccc(Cl)c2[nH]c(Nc3ccc(Cl)cc3Cl)c(C(=O)CC(C)C)c(=O)c12 [RE27, 8-chloro-2-((2,4-dichlorophenyl)amino)-5-methyl-3-(3-methylbutanoyl)quinolin-4(1H)-one] | C (C represents a ratio of test compound IC50 to RE01 IC50 between 1.5-10)
CC(C)CC(=O)c1c(Nc2ccc(Cl)cc2Cl)[nH]c2ccccc2c1=O [RE28, 2-((2,4-dichlorophenyl)amino)-3-(3-methylbutanoyl)quinolin-4(1H)-one] | A (A represents a ratio of test compound IC50 to RE01 IC50 of less than 0.8)
COc1ccc(Cl)c2[nH]c(Nc3ccc(Cl)cc3Cl)c(C(=O)CC(C)C)c(=O)c12 [RE29, 8-chloro-2-((2,4-dichlorophenyl)amino)-5-methoxy-3-(3-methylbutanoyl)quinolin-4(1H)-one] | A (A represents a ratio of test compound IC50 to RE01 IC50 of less than 0.8)
CC(C)CC(=O)c1c(Nc2ccc(Cl)cc2Cl)[nH]c2c(Cl)ccc(O)c2c1=O [RE30, 8-chloro-2-((2,4-dichlorophenyl)amino)-5-hydroxy-3-(3-methylbutanoyl)quinolin-4(1H)-one] | C (C represents a ratio of test compound IC50 to RE01 IC50 between 1.5-10)
CC(C)CC(=O)c1c(Nc2ccc(Cl)c(Cl)c2)[nH]c2c(Cl)ccc([N+](=O)[O-])c2c1=O [RE31, 8-chloro-2-((3,4-dichlorophenyl)amino)-3-(3-methylbutanoyl)-5-nitroquinolin-4(1H)-one] | C (C represents a ratio of test compound IC50 to RE01 IC50 between 1.5-10)
CC(C)CC(=O)c1c(Nc2c(F)cc(F)cc2F)[nH]c2c(Cl)ccc([N+](=O)[O-])c2c1=O [RE33, 8-chloro-3-(3-methylbutanoyl)-5-nitro-2-((2,4,6-trifluorophenyl)amino)quinolin-4(1H)-one] | C (C represents a ratio of test compound IC50 to RE01 IC50 between 1.5-10)
CC(C)CC(=O)c1c(Nc2ccc(Cl)cc2Cl)[nH]c2c(Cl)cc([N+](=O)[O-])cc2c1=O [RE34, 8-chloro-2-((2,4-dichlorophenyl)amino)-3-(3-methylbutanoyl)-6-nitroquinolin-4(1H)-one] | A (A represents a ratio of test compound IC50 to RE01 IC50 of less than 0.8)

From patent US11801242B2, “Compositions and methods for adjuvant cancer therapeutics” (DUKE UNIVERSITY, priority 2018, dated 2023)
